Measurements published in article PMC9246714, “Characterization of inositol lipid metabolism in gut-associated Bacteroidetes” (Nature Microbiology, 2022).

T1: BT_1526 MIPS (Bacteroides thetaiotaomicron, UniProt Q8A7J8)
T1 construct: full-length wild-type ORF (synthetic gene), pET-28a, N-terminal His6 tag, E. coli BL21(DE3); HisTrap and Superdex S200; tetramer in crystal
T1 sequence (Q8A7J8 1-429): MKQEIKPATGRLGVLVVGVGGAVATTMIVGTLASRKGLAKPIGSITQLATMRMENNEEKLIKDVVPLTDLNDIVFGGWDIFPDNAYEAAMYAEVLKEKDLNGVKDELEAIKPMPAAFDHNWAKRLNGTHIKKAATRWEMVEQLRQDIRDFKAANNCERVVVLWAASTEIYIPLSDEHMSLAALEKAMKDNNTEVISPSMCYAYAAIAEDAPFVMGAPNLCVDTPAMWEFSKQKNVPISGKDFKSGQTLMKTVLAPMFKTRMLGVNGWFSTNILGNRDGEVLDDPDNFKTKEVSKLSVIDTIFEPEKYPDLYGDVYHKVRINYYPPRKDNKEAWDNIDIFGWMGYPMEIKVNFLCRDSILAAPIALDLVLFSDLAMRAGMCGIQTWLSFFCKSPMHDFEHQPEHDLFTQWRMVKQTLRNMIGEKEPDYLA

B1: BT_1526 myo-inositol phosphate synthase (MIPS) of Bacteroides thetaiotaomicron (enzyme, UniProt Q8A7J8 1-429, looked up)
chain: T1 sequence (Q8A7J8 1-429)
notes: myo-inositol phosphate synthase BT_1526 of Bacteroides thetaiotaomicron VPI-5482; synthetic gene encoding the BT_1526 open reading frame (wild type) in pET-28a; No cleavage of the His tag is described; also called BT_1526 MIPS; BT MIP synthase; source: E. coli BL21 (DE3), purified (HisTrap, Superdex S200 size-exclusion chromatography)

What was measured:
BT_1526 MIPS = target: T1, BT_1526 MIPS; experiment: X-ray crystal structure, […] Å; details: cofactor binding site; crystals grown at pH 6.5, 20 °C
[1] = target: the molecule itself; experiment: crystal structure; sitting drop vapour diffusion, 20 °C; 200 mM sodium formate, 100 mM bis tris propane pH 6.5, 20% (w/v) PEG 3350; protein at 11.4 mg/ml; MIPS:NAD complex

Molecule | X-ray crystal structure, 2.0 Å (BT_1526 MIPS) | stoichiometry N [1]
NC(=O)c1ccc[n+]([C@@H]2O[C@H](COP(=O)(O)OP(=O)(O)OC[C@H]3O[C@@H](n4cnc5c(N)ncnc54)[C@H](O)[C@@H]3O)[C@@H](O)[C@H]2O)c1 [NAD, NAD+] | the structure of the MIPS:NAD complex in the cofactor binding site | 
B1 |  | 4
